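Exposure lasted 48 hours, with cells grown in 96-well plates and compounds tested at five concentrations. GI50: concentration for 50% inhibition of growth.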 The source made the active and inactive calls. Rule as the data show it: active = GI50 up to about 1.1 µM and inactive = higher.
How the values were obtained:
Assay in all cases: NCI anticancer screen, dose series, 48 h
DU-145 = test system: DU-145
M14 = test system: M14
MDA-N = test system: MDA-N
OVCAR-8 = test system: OVCAR-8
SN12C = test system: SN12C
CCRF-CEM = test system: CCRF-CEM
SNB-75 = test system: SNB-75
MDA-MB-435 = test system: MDA-MB-435
Hs-578T = test system: Hs-578T
SK-OV-3 = test system: SK-OV-3
SK-MEL-28 = test system: SK-MEL-28
OVCAR-3 = test system: OVCAR-3
MDA-MB-231 = test system: MDA-MB-231
CAKI-1 = test system: CAKI-1
MOLT-4 = test system: MOLT-4
BT-549 = test system: BT-549
PC-3 = test system: PC-3
HL-60 = test system: HL-60
HCT-116 = test system: HCT-116
SW-620 = test system: SW-620
SK-MEL-2 = test system: SK-MEL-2
HOP-92 = test system: HOP-92
UACC-257 = test system: UACC-257
HOP-62 = test system: HOP-62
LOX IMVI = test system: LOX IMVI
TK-10 = test system: TK-10
U-251 = test system: U-251
RXF 393 = test system: RXF 393
NCI-H23 = test system: NCI-H23
A549 = test system: A549
HT-29 = test system: HT-29
NCI-H522 = test system: NCI-H522
RPMI-8226 = test system: RPMI-8226
SR = test system: SR
786-0 = test system: 786-0
SF-268 = test system: SF-268
KM12 = test system: KM12
EKVX = test system: EKVX
UO-31 = test system: UO-31
A498 = test system: A498
SNB-19 = test system: SNB-19
K562 = test system: K562
NCI-H226 = test system: NCI-H226
NCI/ADR-RES = test system: NCI/ADR-RES
MCF7 = test system: MCF7
SF-295 = test system: SF-295
T47D = test system: T47D
COLO 205 = test system: COLO 205
NCI-H460 = test system: NCI-H460
ACHN = test system: ACHN
Malme-3M = test system: Malme-3M
UACC-62 = test system: UACC-62
IGROV-1 = test system: IGROV-1
OVCAR-4 = test system: OVCAR-4
HCT-15 = test system: HCT-15
OVCAR-5 = test system: OVCAR-5
SK-MEL-5 = test system: SK-MEL-5
SF-539 = test system: SF-539

With `Nc1cccc(OCc2nc(N)nc(N)c2-c2ccc(Cl)cc2)c1` the GI50 (DU-145) was 73.1 µM (inactive), the GI50 (M14) was 60.8 µM (inactive) and the GI50 (MDA-N) was 42.1 µM (inactive). The GI50 (OVCAR-8) was 43.9 µM (inactive), the GI50 (SN12C) was 51.3 µM (inactive) and the GI50 (CCRF-CEM) was 13.1 µM (inactive). The GI50 (SNB-75) was 32.2 µM (inactive), the GI50 (MDA-MB-435) was 56.4 µM (inactive) and the GI50 (Hs-578T) was 62.2 µM (inactive). For the same molecule, the GI50 (SK-OV-3) was 89.1 µM (inactive), the GI50 (SK-MEL-28) was 70 µM (inactive) and the GI50 (OVCAR-3) was > 100 µM (inactive). For the same molecule, the GI50 (MDA-MB-231) was > 100 µM (inactive), the GI50 (CAKI-1) was 46.7 µM (inactive) and the GI50 (MOLT-4) was 26.1 µM (inactive). For the same molecule, the GI50 (BT-549) was 36.1 µM (inactive), the GI50 (PC-3) was 41.3 µM (inactive) and the GI50 (HL-60) was 23.8 µM (inactive). For the same molecule, the GI50 (HCT-116) was 44.7 µM (inactive), the GI50 (SW-620) was 50.6 µM (inactive) and the GI50 (SK-MEL-2) was > 100 µM (inactive). For the same molecule, the GI50 (HOP-92) was 31.3 µM (inactive), the GI50 (UACC-257) was 41.1 µM (inactive) and the GI50 (HOP-62) was > 100 µM (inactive). For the same molecule, the GI50 (LOX IMVI) was 52.5 µM (inactive), the GI50 (TK-10) was 31.5 µM (inactive) and the GI50 (U-251) was 64.9 µM (inactive). The GI50 (RXF 393) was 60 µM (inactive), the GI50 (NCI-H23) was 43.2 µM (inactive) and the GI50 (A549) was 35.8 µM (inactive). The GI50 (HT-29) was 39.4 µM (inactive), the GI50 (NCI-H522) was 57.5 µM (inactive) and the GI50 (RPMI-8226) was 37.8 µM (inactive). The GI50 (SR) was 36.7 µM (inactive), the GI50 (786-0) was 53.5 µM (inactive) and the GI50 (SF-268) was 60 µM (inactive). The GI50 (KM12) was 57.3 µM (inactive), the GI50 (EKVX) was 52.8 µM (inactive) and the GI50 (UO-31) was 36.3 µM (inactive). For the same molecule, the GI50 (A498) was 39.4 µM (inactive), the GI50 (SNB-19) was > 100 µM (inactive) and the GI50 (K562) was 23.9 µM (inactive). The GI50 (NCI-H226) was 12.4 µM (inactive), the GI50 (NCI/ADR-RES) was 44 µM (inactive) and the GI50 (MCF7) was 37.8 µM (inactive). The GI50 (SF-295) was 64.1 µM (inactive), the GI50 (T47D) was 35.8 µM (inactive) and the GI50 (COLO 205) was 18.6 µM (inactive). The GI50 (NCI-H460) was 32.9 µM (inactive), the GI50 (ACHN) was 44.3 µM (inactive) and the GI50 (Malme-3M) was > 100 µM (inactive). For the same molecule, the GI50 (UACC-62) was 62.2 µM (inactive), the GI50 (IGROV-1) was 37.3 µM (inactive) and the GI50 (OVCAR-4) was 49.7 µM (inactive). For the same molecule, the GI50 (HCT-15) was 39.2 µM, the GI50 (OVCAR-5) was > 100 µM (inactive) and the GI50 (SK-MEL-5) was 26.9 µM (inactive).
`COc1ccc2oc(=N)c(C(=O)NCc3ccccc3)cc2c1` was tested, and the GI50 (DU-145) was 24.3 µM (inactive), the GI50 (M14) was 33.2 µM (inactive) and the GI50 (MDA-N) was 19.8 µM (inactive). The GI50 (OVCAR-8) was 16.7 µM (inactive), the GI50 (SN12C) was 32.2 µM (inactive) and the GI50 (CCRF-CEM) was 62.1 µM (inactive). The GI50 (SNB-75) was 15.3 µM (inactive), the GI50 (MDA-MB-435) was 14.5 µM (inactive) and the GI50 (Hs-578T) was 15.8 µM (inactive). The GI50 (SK-OV-3) was 20.3 µM (inactive), the GI50 (SK-MEL-28) was 26.2 µM (inactive) and the GI50 (OVCAR-3) was 18.8 µM (inactive). The GI50 (MDA-MB-231) was 23.3 µM (inactive), the GI50 (CAKI-1) was 34.6 µM (inactive) and the GI50 (MOLT-4) was 46.3 µM (inactive). The GI50 (BT-549) was 17.7 µM (inactive), the GI50 (PC-3) was 30.5 µM (inactive) and the GI50 (HL-60) was > 100 µM (inactive). The GI50 (HCT-116) was 30.1 µM (inactive), the GI50 (SW-620) was 19 µM (inactive) and the GI50 (SK-MEL-2) was 18.6 µM (inactive). For the same molecule, the GI50 (UACC-257) was 24.8 µM (inactive), the GI50 (HOP-62) was 21.2 µM (inactive) and the GI50 (LOX IMVI) was 38.6 µM (inactive). For the same molecule, the GI50 (TK-10) was 22.6 µM (inactive), the GI50 (U-251) was 16.9 µM (inactive) and the GI50 (RXF 393) was 16.8 µM (inactive). For the same molecule, the GI50 (NCI-H23) was 18.1 µM (inactive), the GI50 (A549) was 34 µM (inactive) and the GI50 (HT-29) was 34.7 µM (inactive). For the same molecule, the GI50 (NCI-H522) was 19.5 µM (inactive), the GI50 (RPMI-8226) was 45 µM (inactive) and the GI50 (SR) was 54.8 µM (inactive). The GI50 (786-0) was 27.9 µM (inactive), the GI50 (SF-268) was 18.8 µM (inactive) and the GI50 (KM12) was 13.3 µM (inactive). For the same molecule, the GI50 (EKVX) was 31.2 µM (inactive), the GI50 (UO-31) was 46.6 µM (inactive) and the GI50 (A498) was 15.2 µM (inactive). The GI50 (SNB-19) was 27.4 µM (inactive), the GI50 (K562) was 41.6 µM (inactive) and the GI50 (NCI-H226) was 22.7 µM (inactive). For the same molecule, the GI50 (NCI/ADR-RES) was 14.9 µM (inactive), the GI50 (MCF7) was 24 µM (inactive) and the GI50 (SF-295) was 24.7 µM (inactive). For the same molecule, the GI50 (T47D) was 15 µM (inactive), the GI50 (COLO 205) was 31.7 µM (inactive) and the GI50 (NCI-H460) was 28.5 µM (inactive). The GI50 (SF-539) was 25.2 µM (inactive), the GI50 (ACHN) was 13.3 µM (inactive) and the GI50 (Malme-3M) was 15.5 µM (inactive). For the same molecule, the GI50 (IGROV-1) was 19.9 µM (inactive), the GI50 (OVCAR-4) was 34.8 µM (inactive) and the GI50 (HCT-15) was 21.1 µM. For the same molecule, the GI50 (OVCAR-5) was 43.6 µM (inactive) and the GI50 (SK-MEL-5) was 27.9 µM (inactive).
In the case of `CC(NC(=O)C(Cc1ccc(OC(=O)c2ccccc2)cc1)NC(=O)OC(C)(C)C)C(=O)NCC(=O)NC(Cc1ccccc1)NC(=O)OCc1ccccc1` (stereo not drawn), the GI50 (DU-145) is reported as > 100 µM (inactive), the GI50 (M14) is reported as > 100 µM (inactive) and the GI50 (MDA-N) is reported as > 100 µM (inactive). For the same molecule, the GI50 (OVCAR-8) was > 100 µM (inactive), the GI50 (SN12C) was > 100 µM (inactive) and the GI50 (SNB-75) was > 100 µM (inactive). The GI50 (MDA-MB-435) was > 100 µM (inactive), the GI50 (Hs-578T) was 59.8 µM (inactive) and the GI50 (SK-OV-3) was > 100 µM (inactive). The GI50 (SK-MEL-28) was > 100 µM (inactive), the GI50 (OVCAR-3) was > 100 µM (inactive) and the GI50 (MDA-MB-231) was > 100 µM (inactive). For the same molecule, the GI50 (CAKI-1) was > 100 µM (inactive), the GI50 (MOLT-4) was 62.7 µM (inactive) and the GI50 (BT-549) was > 100 µM (inactive). The GI50 (PC-3) was > 100 µM (inactive), the GI50 (HL-60) was > 100 µM (inactive) and the GI50 (HCT-116) was > 100 µM (inactive). For the same molecule, the GI50 (SW-620) was > 100 µM (inactive), the GI50 (HOP-92) was > 100 µM (inactive) and the GI50 (HOP-62) was > 100 µM (inactive). For the same molecule, the GI50 (LOX IMVI) was > 100 µM (inactive), the GI50 (TK-10) was > 100 µM (inactive) and the GI50 (U-251) was > 100 µM (inactive). The GI50 (RXF 393) was > 100 µM (inactive), the GI50 (NCI-H23) was > 100 µM (inactive) and the GI50 (A549) was > 100 µM (inactive). For the same molecule, the GI50 (HT-29) was > 100 µM (inactive), the GI50 (NCI-H522) was > 100 µM (inactive) and the GI50 (RPMI-8226) was 50.6 µM (inactive). For the same molecule, the GI50 (SR) was 87.5 µM (inactive), the GI50 (786-0) was > 100 µM (inactive) and the GI50 (SF-268) was > 100 µM (inactive). For the same molecule, the GI50 (KM12) was > 100 µM (inactive), the GI50 (EKVX) was > 100 µM (inactive) and the GI50 (UO-31) was > 100 µM (inactive). The GI50 (A498) was 28.5 µM (inactive), the GI50 (SNB-19) was > 100 µM (inactive) and the GI50 (K562) was > 100 µM (inactive). The GI50 (NCI-H226) was > 100 µM (inactive), the GI50 (NCI/ADR-RES) was > 10 µM (inactive) and the GI50 (MCF7) was > 100 µM (inactive). For the same molecule, the GI50 (SF-295) was > 100 µM (inactive), the GI50 (T47D) was > 100 µM (inactive) and the GI50 (COLO 205) was > 100 µM (inactive). The GI50 (NCI-H460) was > 100 µM (inactive), the GI50 (SF-539) was > 100 µM (inactive) and the GI50 (ACHN) was > 100 µM (inactive). The GI50 (Malme-3M) was > 100 µM (inactive), the GI50 (UACC-62) was > 100 µM (inactive) and the GI50 (IGROV-1) was > 100 µM (inactive). The GI50 (OVCAR-4) was 15.8 µM (inactive), the GI50 (HCT-15) was over 100 µM and the GI50 (OVCAR-5) was > 100 µM (inactive). The GI50 (SK-MEL-5) was 71.6 µM (inactive).

— ChEMBL document CHEMBL1201862, “PubChem BioAssay data set” (2004)
